In patent publication US5225528A, “Cyclic hexapeptide oxytocin antagonists” (priority 1990, dated 1993):
Where a name gives a salt, the structure may show the parent alone. Read-outs that look alike come from different tables or passages of the source. Numbered stars: 1 amine (or outer) side, 2 acyl side, 3 side chain; on linkers, the order of the positions; unused ones are H or OH. Square brackets hold non-standard residues; d marks the D form. Peptide text beside a SMILES is read from it. * marks the point of attachment. NH(2-(imidazol-4-yl)ethyl) = c1ncc(CCN*)[nH]1; dPiz(1,6-dehydro) = O=C(O)[C@H]1CCC=NN1; Ethylenediamine = C(CN[*:2])N[*:1]; X6 = O=C([C@H]1CCCNN1[*:1])[*:2]; dNMeF = CN[C@H](Cc1ccccc1)C(=O)O; Pip = O=C(O)[C@@H]1CCCCN1; dPip = O=C(O)[C@H]1CCCCN1; Orn = NCCC[C@H](N)C(=O)O; Dap = NC[C@H](N)C(=O)O; Boc = CC(C)(C)OC(=O)*; Dha = C=C(N)C(=O)O; OtBu = CC(C)(C)O*

How the values were obtained:
uterine OT receptors = target: T1, uterine OT receptors (Rattus norvegicus, UniProt P70536); assay: [^3 H]OT binding to uterine OT receptors, crude membrane preparation of uteri from DES-treated rats
T1 construct: from tissue; host or cells: uterus of DES-treated rats, crude membranes
T1 sequence (P70536 1-388): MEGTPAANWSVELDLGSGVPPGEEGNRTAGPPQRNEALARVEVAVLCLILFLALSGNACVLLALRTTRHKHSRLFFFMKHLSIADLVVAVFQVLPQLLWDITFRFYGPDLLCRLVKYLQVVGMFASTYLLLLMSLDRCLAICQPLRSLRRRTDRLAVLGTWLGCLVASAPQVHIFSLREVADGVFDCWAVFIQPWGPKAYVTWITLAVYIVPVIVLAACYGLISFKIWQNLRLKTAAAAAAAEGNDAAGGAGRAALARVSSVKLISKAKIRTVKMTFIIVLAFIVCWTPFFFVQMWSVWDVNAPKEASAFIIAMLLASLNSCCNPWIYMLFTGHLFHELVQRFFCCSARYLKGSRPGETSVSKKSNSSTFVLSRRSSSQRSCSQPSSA
Procedure: Competition studies were conducted at equilibrium (60 minutes; 22° C.) using 1 nM [^3 H]OT in the following assay buffer: 50 mM Tris-HCl, 5 mM MgCl2, and 0.1% BSA, pH 7.4.

AVP-V1 sites = target: T2, AVP-V1 sites (Rattus norvegicus, UniProt P30560); assay: [^3 H]AVP binding to crude membrane preparation of male rat liver (AVP-V1 sites)
T2 construct: crude membrane preparation of male rat liver (AVP-V1 sites); from tissue; host or cells: male rat liver, crude membranes
T2 sequence (P30560 whole entry): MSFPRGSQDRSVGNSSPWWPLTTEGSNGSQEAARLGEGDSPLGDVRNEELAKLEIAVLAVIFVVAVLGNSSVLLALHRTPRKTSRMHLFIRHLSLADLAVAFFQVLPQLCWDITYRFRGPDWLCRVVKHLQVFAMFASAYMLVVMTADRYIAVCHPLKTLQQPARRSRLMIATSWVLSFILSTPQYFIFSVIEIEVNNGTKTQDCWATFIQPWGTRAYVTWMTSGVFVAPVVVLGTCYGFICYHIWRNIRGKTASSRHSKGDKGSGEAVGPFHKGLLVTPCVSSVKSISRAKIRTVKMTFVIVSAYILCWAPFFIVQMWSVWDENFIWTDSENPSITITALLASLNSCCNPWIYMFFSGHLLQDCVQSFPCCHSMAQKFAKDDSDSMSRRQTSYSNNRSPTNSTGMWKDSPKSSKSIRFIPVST
Procedure: (§1) Nonspecific binding (5-10% of the total binding) was determined using 10 μM unlabeled AVP, and the binding reaction was terminated by filtration as described above for the [^3 H]OT binding assay.

AVP-V2 sites = target: T3, AVP-V2 sites (Rattus norvegicus, UniProt Q00788); assay: [^3 H]AVP binding to crude membrane preparation of male rat kidney medulla (AVP-V2 sites)
T3 construct: male rat liver (AVP-V1 sites) or kidney medulla (AVP-V2 sites); from tissue; host or cells: male rat kidney medulla, crude membranes
T3 sequence (Q00788 whole entry): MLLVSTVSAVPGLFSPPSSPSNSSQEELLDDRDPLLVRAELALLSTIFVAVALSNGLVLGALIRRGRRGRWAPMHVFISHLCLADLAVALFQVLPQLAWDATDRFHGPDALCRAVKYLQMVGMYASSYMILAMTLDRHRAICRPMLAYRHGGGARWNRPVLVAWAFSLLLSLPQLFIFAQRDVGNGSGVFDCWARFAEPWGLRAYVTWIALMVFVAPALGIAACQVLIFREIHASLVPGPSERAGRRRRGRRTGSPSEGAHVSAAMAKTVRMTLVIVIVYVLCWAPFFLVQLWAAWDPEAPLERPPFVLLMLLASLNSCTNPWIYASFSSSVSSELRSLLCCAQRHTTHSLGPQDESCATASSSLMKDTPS
Procedure: as §1

[1] = rat uterus membranes, 1 nM [^3 H]OT, read-out: Receptor Binding Results IC50 (nM) [^3 H]OT
[2] = read-out: Receptor Binding Results IC50 (nM) [^3 H]-AVP-V1
[3] = read-out: Receptor Binding Results IC50 (nM) [^3 H]-AVP-V2
[4] = Receptor Binding Results IC50 (nM) [^3 H]-AVP-V1
[5] = rat kidney medulla membranes, 2 nM [^3 H]AVP, read-out: Receptor Binding Results IC50 (nM) [^3 H]-AVP-V2

| SMILES | IC50 (uterine OT receptors; [1]) | IC50 (AVP-V1 sites; [2]) | IC50 (AVP-V2 sites; [3]) | IC50 (AVP-V1 sites; [4]) | IC50 (AVP-V2 sites; [5]) | IC50 (AVP-V2 sites; Receptor Binding Results IC50 (nM) [^3 H]-AVP-V2) | IC50 (uterine OT receptors; Receptor Binding Results IC50 (nM) [^3 H]OT) |
| --- | --- | --- | --- | --- | --- | --- | --- |
| CC[C@H](C)[C@@H]1NC(=O)[C@@H](Cc2ccccc2)NC(=O)[C@@H]2CCCN2C(=O)[C@@H](Cc2ccccc2)N(C)C(=O)[C@@H]2CCCCN2C(=O)[C@H]2CCCNN2C1=O [Example 111, c-[D-Phenylalanyl-L-isoleucyl-D-piperazyl-L-pipecolyl-N-methyl-D-phenylalanyl-L-prolyl]] (cyclo(I[X6][Pip][dNMeF]P[dF])) | 111 nM | 4200 nM | 3500 nM |  |  |  |  |
| CC[C@H](C)[C@@H]1NC(=O)[C@@H](Cc2ccccc2)NC(=O)[C@@H]2CCCN2C(=O)[C@@H](Cc2ccccc2)N(C)C(=O)[C@@H]2CCCCN2C(=O)[C@H]2CCC=NN2C1=O [Example 112, c-[D-Phenylalanyl-L-isoleucyl-D-Δ-piperazyl-L-pipecolyl-N-methyl-D-phenylalanyl-L-prolyl]] (cyclo(I[dPiz(1,6-dehydro)][Pip][dNMeF]P[dF])) | 14.7 nM | 3450 nM | 1170 nM |  |  |  |  |
| CC[C@H](C)[C@@H]1NC(=O)[C@@H](Cc2ccccc2)NC(=O)[C@@H]2CCCN2C(=O)[C@@H](Cc2ccccc2)N(C)C(=O)[C@H](CO)NC(=O)[C@H]2CCCN2C1=O [Example 114, c-[D-Phenylalanyl-L-isoleucyl-D-prolyl-L-seryl-N-methyl-D-phenylalanyl-L-prolyl]] (cyclo(I[dP]S[dNMeF]P[dF])) | 675 nM |  |  | > 10000 nM | > 10000 nM |  |  |
| CC[C@H](C)[C@@H]1NC(=O)[C@@H](Cc2ccccc2)NC(=O)[C@@H]2CCCN2C(=O)[C@@H](Cc2ccccc2)N(C)C(=O)[C@H](CC(=O)OC(C)(C)C)NC(=O)[C@H]2CCCCN2C1=O [Example 115, c-[D-Phenylalanyl-L-isoleucyl-D-pipecolyl(O-tert-butyl)-L-aspartyl-N-methyl-D-phenylalanyl-L-prolyl]] (cyclo(D(OtBu)[dNMeF]P[dF]I[dPip])) | 460 nM |  |  | > 10000 nM | 10000 nM |  |  |
| CC[C@H](C)[C@@H]1NC(=O)[C@@H](Cc2ccccc2)NC(=O)[C@@H]2CCCN2C(=O)[C@@H](Cc2ccccc2)N(C)C(=O)[C@H](CC(=O)O)NC(=O)[C@H]2CCCCN2C1=O [Example 116, c-[D-Phenylalanyl-L-isoleucyl-D-pipecolyl-L-aspartyl-N-methyl-D-phenylalanyl-L-prolyl]] (cyclo(D[dNMeF]P[dF]I[dPip])) | 1450 nM |  |  | > 10000 nM | > 10000 nM |  |  |
| C=C1NC(=O)[C@H]2CCCN2C(=O)[C@H]([C@@H](C)CC)NC(=O)[C@@H](Cc2ccccc2)NC(=O)[C@@H]2CCCN2C(=O)[C@@H](Cc2ccccc2)N(C)C1=O [Example 117, c-[D-Phenylalanyl-L-isoleucyl-D-prolyl-dehydroalanyl-N-methyl-D-phenylalanyl-L-prolyl]] (cyclo([Dha][dNMeF]P[dF]I[dP])) | > 10000 nM |  |  | > 10000 nM | > 10000 nM |  |  |
| CC[C@H](C)[C@@H]1NC(=O)[C@@H](Cc2ccccc2)NC(=O)[C@@H]2CCCN2C(=O)[C@@H](Cc2ccccc2)N(C)C(=O)[C@H](CC(N)=O)NC(=O)[C@H]2CCCCN2C1=O [Example 118, c-[D-Phenylalanyl-L-isoleucyl-D-pipecolyl-L-asparagyl-N-methyl-D-phenylalanyl-L-prolyl]] (cyclo(I[dPip]N[dNMeF]P[dF])) | 345 nM |  |  | > 10000 nM | 10000 nM |  |  |
| CC[C@H](C)[C@@H]1NC(=O)[C@@H](Cc2ccccc2)NC(=O)[C@@H]2CCCN2C(=O)[C@@H](Cc2ccccc2)N(C)C(=O)[C@H](CC(=O)NCCN)NC(=O)[C@H]2CCCCN2C1=O [Example 119, c-[D-Phenylalanyl-L-isoleucyl-D-pipecolyl-N^β -(aminoethyl)-L-asparagyl-N-methyl-D-phenylalanyl-L-prolyl]] (cyclo(D(Ethylenediamine)[dNMeF]P[dF]I[dPip])) | 260 nM | 7300 nM | 3100 nM |  |  |  |  |
| CC[C@H](C)[C@@H]1NC(=O)[C@@H](Cc2ccccc2)NC(=O)[C@@H]2CCCN2C(=O)[C@@H](Cc2ccccc2)N(C)C(=O)[C@H](CC(=O)NCCc2c[nH]cn2)NC(=O)[C@H]2CCCCN2C1=O [Example 120, c-[D-Phenylalanyl-L-isoleucyl-D-pipecolyl-N^β -(imidazolylethyl)-L-asparagyl-N-methyl-D-phenylalanyl-L-prolyl]] (cyclo(D(NH(2-(imidazol-4-yl)ethyl))[dNMeF]P[dF]I[dPip])) | 120 nM |  |  | 10000 nM | 10000 nM |  |  |
| CC[C@H](C)[C@@H]1NC(=O)[C@@H](Cc2ccccc2)NC(=O)[C@@H]2CCCN2C(=O)[C@@H](Cc2ccccc2)N(C)C(=O)[C@H](CN)NC(=O)[C@H]2CCCCN2C1=O [Example 121, c-[D-Phenylalanyl-L-isoleucyl-D-pipecolyl-L-2,3-diaminopropionyl-N-methyl-D-phenylalanyl-L-prolyl]] (cyclo([Dap][dNMeF]P[dF]I[dPip])) | 270 nM |  |  | 10000 nM | 10000 nM |  |  |
| CCOc1ccc(C[C@H]2NC(=O)[C@@H]3CCCN3C(=O)[C@@H](Cc3ccccc3)N(C)C(=O)[C@@H]3CCCCN3C(=O)[C@H]3CCCCN3C(=O)[C@H]([C@@H](C)CC)NC2=O)cc1 [Example 122, c-[(O-Ethyl)-D-tyrosyl-L-isoleucyl-D-pipecolyl-L-pipecolyl-N-methyl-D-phenylalanyl-L-prolyl]] (cyclo(I[dPip][Pip][dNMeF]P[dY](Et))) | 130 nM |  | 695 nM | > 10000 nM |  |  |  |
| CC[C@H](C)[C@@H]1NC(=O)[C@@H](Cc2ccccc2)NC(=O)[C@@H]2CCCN2C(=O)[C@@H](Cc2ccccc2)N(C)C(=O)[C@H](CCCNC(=O)OC(C)(C)C)NC(=O)[C@H]2CCC=NN2C1=O [Example 124, c-[D-Phenylalanyl-L-isoleucyl-D-Δ-piperazyl(N^δ -Boc)-L-orinthyl-N-methyl-D-δ-phenyl-alaninyl-L-prolyl]] (cyclo(I[dPiz(1,6-dehydro)][Orn](Boc)[dNMeF]P[dF])) | 17.5 nM | 2700 nM | 3600 nM |  |  |  |  |
| CC[C@H](C)[C@@H]1NC(=O)[C@@H](Cc2ccccc2)NC(=O)[C@@H]2CCCN2C(=O)[C@@H](Cc2ccccc2)N(C)C(=O)[C@H](CCCN)NC(=O)[C@H]2CCC=NN2C1=O [Example 125, c-[D-Phenylalanyl-L-isoleucyl-D-Δ-piperazyl-L-ornithyl-D-(N-methyl)phenylalanyl-L-prolyl] acetate salt] (cyclo(I[dPiz(1,6-dehydro)][Orn][dNMeF]P[dF])) | 16 nM | 810 nM |  |  | 1600 nM |  |  |
| CC[C@H](C)[C@@H]1NC(=O)[C@@H](Cc2c[nH]c3ccccc23)NC(=O)[C@@H]2CCCN2C(=O)[C@@H](Cc2ccccc2)N(C)C(=O)[C@H](CCCNC(=O)OC(C)(C)C)NC(=O)[C@H]2CCC=NN2C1=O [Example 126, c-[D-Tryptophanyl-L-isoleucyl-D-Δ-piperazyl (N^δ -Boc)-L-ornithyl-N-methyl-D-phenylalanyl-L-prolyl]] (cyclo(I[dPiz(1,6-dehydro)][Orn](Boc)[dNMeF]P[dW])) | 15 nM |  |  | > 1000 nM |  | 1000 nM |  |
| CC[C@H](C)[C@@H]1NC(=O)[C@@H](Cc2c[nH]c3ccccc23)NC(=O)[C@@H]2CCCN2C(=O)[C@@H](Cc2ccccc2)N(C)C(=O)[C@H](CCCN)NC(=O)[C@H]2CCC=NN2C1=O [Example 127, c-[D-Tryptophanyl-L-isoleucyl-D-Δ-piperazyl-L-ornithyl-N-methyl-D-phenylalanyl L-prolyl]] (cyclo(I[dPiz(1,6-dehydro)][Orn][dNMeF]P[dW])) |  | 1600 nM |  |  | 330 nM |  | 22 nM |
| CC[C@H](C)[C@@H]1NC(=O)[C@@H](Cc2c[nH]c3ccccc23)NC(=O)[C@@H]2CCCN2C(=O)[C@@H](Cc2c[nH]cn2)NC(=O)[C@H](CCCNC(=O)OC(C)(C)C)NC(=O)[C@H]2CCCNN2C1=O [Example 128, c-[D-Tryptophanyl-L-isoleucyl-D-piperazyl(N^δ -Boc)-L-or nithyl-D-histidyl-L-prolyl]] (cyclo(I[X6][Orn](Boc)[dH]P[dW])) | 118 nM |  |  | 10000 nM | 10000 nM |  |  |
| CC[C@H](C)[C@@H]1NC(=O)[C@@H](Cc2c[nH]c3ccccc23)NC(=O)[C@@H]2CCCN2C(=O)[C@@H](Cc2c[nH]cn2)NC(=O)[C@H](CCCNC(=O)OC(C)(C)C)NC(=O)[C@H]2CCCCN2C1=O [Example 129, c-[D-Tryptophanyl-L-isoleucyl-D-pipecolyl-(N^δ -Boc)-L-ornithyl-D-histidyl-L-prolyl] acetate salt] (cyclo(I[dPip][Orn](Boc)[dH]P[dW])) | 100 nM |  |  | 10000 nM | 10000 nM |  |  |
